Measured values taken from ChEMBL document CHEMBL4706477, “Synthesis and Biological Evaluation of Calothrixins B and their Deoxygenated Analogues” (J Med Chem, 2018).
The source made the active and inactive calls. The calls are words filed in the database; no cut-off is given here.

Columns and labels:
NCI-H460 = test: cells; conditions: Homo sapiens, NCI-H460, 48 h
Description: Antiproliferative activity against human NCI-H460 cells assessed as reduction in cell viability incubated for 48 hrs by sulphorhodamine B assay

U-251 = test: cells; conditions: Homo sapiens, U-251, 48 h
Description: Antiproliferative activity against human U-251 cells assessed as reduction in cell viability incubated for 48 hrs by sulphorhodamine B assay

MCF7 = test: cells; conditions: Homo sapiens, MCF7, 48 h
Description: Antiproliferative activity against human MCF7 cells assessed as reduction in cell viability incubated for 48 hrs by sulphorhodamine B assay

MDA-MB-231 = test: cells; conditions: Homo sapiens, MDA-MB-231, 48 h
Description: Antiproliferative activity against human MDA-MB-231 cells assessed as reduction in cell viability incubated for 48 hrs by sulphorhodamine B assay

HeLa = test: cells; conditions: Homo sapiens, 48 h
Description: Antiproliferative activity against human HeLa cells assessed as reduction in cell viability incubated for 48 hrs by sulphorhodamine B assay

HCT-116 [1] = test: cells; conditions: Homo sapiens, HCT-116, 48 h
Description: Antiproliferative activity against human HCT-116 cells assessed as reduction in cell viability incubated for 48 hrs by sulphorhodamine B assay

SiHa = test: cells; conditions: Homo sapiens, 48 h
Description: Antiproliferative activity against human SiHa cells assessed as reduction in cell viability incubated for 48 hrs by sulphorhodamine B assay

HEK293 = test: Antiproliferative activity against human HEK293 cells assessed as reduction in cell viability incubated for 48 hrs by sulphorhodamine B assay; type: functional
A549 = test: Antiproliferative activity against human A549 cells assessed as reduction in cell viability incubated for 48 hrs by sulphorhodamine B assay; type: functional
Jurkat = test: cells; conditions: Homo sapiens, 48 h
Description: Antiproliferative activity against human Jurkat cells assessed as reduction in cell viability incubated for 48 hrs by sulphorhodamine B assay

HCT-116 [2] = test: cells; conditions: Homo sapiens, HCT-116, 48 h; remark: listed apart in the source
Description: Antiproliferative activity against human HCT-116 p53-/- cells assessed as reduction in cell viability incubated for 48 hrs by sulphorhodamine B assay

[3] = molecular target: T1, DNA topoisomerase 2-alpha (Homo sapiens, UniProt P11388); test: Inhibition of human topoisomerase 2 assessed as inhibition of etoposide-induced DNA cleavage complex formation by measuring linear DNA formation at 30 to 50 uM incubated for 30 mins using pRYG DNA as substrate by agarose gel electrophoresis analysis; conditions: dose 30-50 µM
[4] = molecular target: T1, DNA topoisomerase 2-alpha; test: Inhibition of recombinant human topoisomerase 2 assessed as decrease in relaxation of supercoiled pBlue-Script KS(+) plasmid DNA at 200 uM incubated for 30 mins by ethidium bromide staining based gel electrophoresis method
[5] = molecular target: T1, DNA topoisomerase 2-alpha; test: Inhibition of recombinant human topoisomerase 2 assessed as decrease in relaxation of supercoiled pBlue-Script KS(+) plasmid DNA incubated for 30 mins by ethidium bromide staining based gel electrophoresis method
[6] = molecular target: T1, DNA topoisomerase 2-alpha; test: Inhibition of recombinant human topoisomerase 2 assessed as decrease in relaxation of supercoiled pBlue-Script KS(+) plasmid DNA at 40 uM incubated for 30 mins by ethidium bromide staining based gel electrophoresis method relative to control
[7] = molecular target: T2, DNA topoisomerase 1 (Homo sapiens) (UniProt P11387); test: Inhibition of human topoisomerase 1 assessed as induction of negative supercoiled DNA using relaxed pBlue-Script KS(+) plasmid DNA as substrate measured after 15 mins by agarose gel electrophoresis analysis; conditions: dose 60-100 µM
T2 sequence (whole entry): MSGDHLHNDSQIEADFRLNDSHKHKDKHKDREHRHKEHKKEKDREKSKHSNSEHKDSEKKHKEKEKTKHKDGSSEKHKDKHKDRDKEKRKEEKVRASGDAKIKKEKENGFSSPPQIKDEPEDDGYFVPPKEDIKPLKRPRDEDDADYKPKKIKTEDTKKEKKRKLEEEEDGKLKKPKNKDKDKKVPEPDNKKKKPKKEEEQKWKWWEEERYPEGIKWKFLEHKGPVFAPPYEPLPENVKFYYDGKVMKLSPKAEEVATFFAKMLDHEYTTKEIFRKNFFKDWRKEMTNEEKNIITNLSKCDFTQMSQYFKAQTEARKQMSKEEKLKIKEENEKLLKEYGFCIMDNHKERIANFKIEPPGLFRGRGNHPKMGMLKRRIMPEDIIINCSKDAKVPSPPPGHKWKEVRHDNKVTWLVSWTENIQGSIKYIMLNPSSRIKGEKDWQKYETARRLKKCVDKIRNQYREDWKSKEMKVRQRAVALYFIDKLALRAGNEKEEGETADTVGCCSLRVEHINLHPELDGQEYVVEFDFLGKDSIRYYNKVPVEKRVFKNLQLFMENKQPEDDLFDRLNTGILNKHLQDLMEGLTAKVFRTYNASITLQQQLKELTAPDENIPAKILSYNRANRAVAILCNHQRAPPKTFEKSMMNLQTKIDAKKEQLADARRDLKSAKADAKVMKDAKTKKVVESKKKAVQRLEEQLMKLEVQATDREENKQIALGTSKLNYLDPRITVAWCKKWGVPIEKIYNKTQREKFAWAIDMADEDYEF

T1 sequence (P11388 whole entry): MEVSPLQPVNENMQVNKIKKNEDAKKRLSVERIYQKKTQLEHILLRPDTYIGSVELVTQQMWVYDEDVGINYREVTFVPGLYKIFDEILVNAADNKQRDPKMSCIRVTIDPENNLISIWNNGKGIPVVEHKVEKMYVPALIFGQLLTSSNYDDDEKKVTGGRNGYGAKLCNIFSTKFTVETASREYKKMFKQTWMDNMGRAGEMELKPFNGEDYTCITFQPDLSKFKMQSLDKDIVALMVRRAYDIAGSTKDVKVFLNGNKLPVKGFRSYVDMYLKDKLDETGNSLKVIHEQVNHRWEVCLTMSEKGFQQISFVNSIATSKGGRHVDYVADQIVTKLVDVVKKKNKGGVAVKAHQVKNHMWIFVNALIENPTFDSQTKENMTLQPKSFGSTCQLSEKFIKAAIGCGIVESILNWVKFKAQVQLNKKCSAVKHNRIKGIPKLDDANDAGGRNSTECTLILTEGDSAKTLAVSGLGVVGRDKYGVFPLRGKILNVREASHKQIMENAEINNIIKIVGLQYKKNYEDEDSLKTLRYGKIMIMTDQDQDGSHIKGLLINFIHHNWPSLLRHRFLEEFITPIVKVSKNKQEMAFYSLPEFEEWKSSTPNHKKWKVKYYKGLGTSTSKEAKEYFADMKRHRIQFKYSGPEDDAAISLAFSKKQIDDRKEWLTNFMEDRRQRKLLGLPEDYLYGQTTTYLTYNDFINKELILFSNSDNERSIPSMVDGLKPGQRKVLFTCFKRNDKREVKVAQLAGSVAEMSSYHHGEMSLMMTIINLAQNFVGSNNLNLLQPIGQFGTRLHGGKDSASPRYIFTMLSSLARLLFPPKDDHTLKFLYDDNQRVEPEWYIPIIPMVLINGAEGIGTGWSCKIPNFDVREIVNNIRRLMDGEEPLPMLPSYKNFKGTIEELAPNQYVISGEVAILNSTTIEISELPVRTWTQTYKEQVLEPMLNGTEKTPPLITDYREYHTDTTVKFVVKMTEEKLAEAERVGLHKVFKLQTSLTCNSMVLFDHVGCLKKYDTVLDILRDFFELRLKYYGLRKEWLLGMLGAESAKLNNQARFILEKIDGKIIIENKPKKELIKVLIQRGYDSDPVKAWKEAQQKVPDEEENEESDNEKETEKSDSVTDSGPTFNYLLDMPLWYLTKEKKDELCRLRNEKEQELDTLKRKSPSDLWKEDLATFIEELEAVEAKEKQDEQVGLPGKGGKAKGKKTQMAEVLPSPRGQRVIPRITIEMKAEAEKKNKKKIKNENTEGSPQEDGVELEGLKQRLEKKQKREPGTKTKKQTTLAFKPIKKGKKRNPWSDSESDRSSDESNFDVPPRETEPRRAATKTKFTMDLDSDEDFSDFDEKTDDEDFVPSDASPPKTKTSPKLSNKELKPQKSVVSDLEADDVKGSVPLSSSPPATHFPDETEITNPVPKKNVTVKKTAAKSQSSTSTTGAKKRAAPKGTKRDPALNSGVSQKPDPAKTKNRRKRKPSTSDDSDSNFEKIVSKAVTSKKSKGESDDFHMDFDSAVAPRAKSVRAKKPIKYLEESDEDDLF

`Nc1nc2ccccc2c2cc3[nH]c4ccccc4c3cc12` was tested, and the GI50 (NCI-H460) was 1000 nM, the GI50 (U-251) was 1050 nM and the GI50 (MCF7) was 1000 nM. It also gave a GI50 (MDA-MB-231) of 1000 nM, a GI50 (HeLa) of 800 nM and a GI50 (HCT-116 [1]) of 1000 nM. The GI50 (SiHa) was 1050 nM.

Work on `Cc1c2cnc3cc(F)ccc3c2cc2[nH]c3ccccc3c12` yielded a GI50 (NCI-H460) of 40 nM, a GI50 (HEK293) of over 4000 nM and a GI50 (U-251) of over 4000 nM. The GI50 (A549) was over 4000 nM, the GI50 (MCF7) was 270 nM and the GI50 (MDA-MB-231) was over 4000 nM. The GI50 (Jurkat) was over 4000 nM, the GI50 (HeLa) was 50 nM and the GI50 (HCT-116 [1]) was 30000 nM. It also gave a GI50 (SiHa) of over 4000 nM.

For `O=C1c2[nH]c3ccccc3c2C(=O)c2cnc3ccc(Br)cc3c21`, the GI50 (NCI-H460) was 1100 nM, the GI50 (U-251) was 600 nM and the GI50 (HCT-116 [2]) was 1130 nM. The GI50 (MCF7) was 220 nM, the GI50 (MDA-MB-231) was 270 nM and the GI50 (Jurkat) was 1500 nM. For the same compound, the GI50 (HeLa) was 290 nM, the GI50 (HCT-116 [1]) was 700 nM and the GI50 (SiHa) was 1400 nM.

In the case of `O=C1c2cnc3c(Cl)cc(Cl)cc3c2C(=O)c2[nH]c3ccccc3c21`, the GI50 (NCI-H460) is reported as 730 nM, the GI50 (U-251) is reported as 1500 nM and the GI50 (HCT-116 [2]) is reported as 2000 nM. It also gave a GI50 (MCF7) of 500 nM, a GI50 (MDA-MB-231) of 200 nM and a GI50 (Jurkat) of 2600 nM. It also gave a GI50 (HeLa) of 500 nM, a GI50 (HCT-116 [1]) of 1200 nM and a GI50 (SiHa) of 1800 nM.

`O=C1c2cnc3cccc(Cl)c3c2C(=O)c2[nH]c3ccccc3c21` showed a GI50 (NCI-H460) of over 4000 nM, a GI50 (U-251) of over 4000 nM and a GI50 (HCT-116 [2]) of over 4000 nM. For the same compound, the GI50 (MCF7) was 800 nM, the GI50 (MDA-MB-231) was over 4000 nM and the GI50 (Jurkat) was over 4000 nM. The GI50 (HeLa) was over 4000 nM, the GI50 (HCT-116 [1]) was 3500 nM and the GI50 (SiHa) was over 4000 nM.

In the case of `O=C1c2[nH]c3ccccc3c2C(=O)c2cnc3cc(Cl)ccc3c21`, the GI50 (NCI-H460) is reported as 1400 nM, the GI50 (U-251) is reported as 2830 nM and the GI50 (HCT-116 [2]) is reported as 2600 nM. It also gave a GI50 (MCF7) of 530 nM, a GI50 (MDA-MB-231) of 360 nM and a GI50 (Jurkat) of 3550 nM. For the same compound, the GI50 (HeLa) was 70 nM, the GI50 (HCT-116 [1]) was 1500 nM and the GI50 (SiHa) was 1600 nM.

In the case of `O=C1c2[nH]c3ccccc3c2C(=O)c2cnc3cc(F)c(Br)cc3c21`, the GI50 (NCI-H460) is reported as 2250 nM, the GI50 (U-251) is reported as over 4000 nM and the GI50 (HCT-116 [2]) is reported as over 4000 nM. The GI50 (MCF7) was 660 nM, the GI50 (MDA-MB-231) was 400 nM and the GI50 (Jurkat) was over 4000 nM. It also gave a GI50 (HeLa) of 270 nM, a GI50 (HCT-116 [1]) of over 4000 nM and a GI50 (SiHa) of over 4000 nM.

`c1ccc2c(c1)ncc1cc3[nH]c4ccccc4c3cc12` gave a GI50 (NCI-H460) of 10000 nM, a GI50 (HEK293) of over 4000 nM and a GI50 (U-251) of over 4000 nM. It also gave a GI50 (A549) of over 4000 nM, a GI50 (MCF7) of over 4000 nM and a GI50 (MDA-MB-231) of over 4000 nM. It also gave a GI50 (Jurkat) of over 4000 nM, a GI50 (HeLa) of 1400 nM and a GI50 (HCT-116 [1]) of over 50000 nM. The GI50 (SiHa) was over 4000 nM.

In the case of `Clc1ccc2c(c1)ncc1cc3c(cc12)[nH]c1ccccc13`, the GI50 (NCI-H460) is reported as 10000 nM, the GI50 (HEK293) is reported as over 4000 nM and the GI50 (U-251) is reported as over 4000 nM. It also gave a GI50 (A549) of over 4000 nM, a GI50 (MCF7) of over 4000 nM and a GI50 (MDA-MB-231) of over 4000 nM. It also gave a GI50 (Jurkat) of over 4000 nM, a GI50 (HeLa) of 430 nM and a GI50 (HCT-116 [1]) of 28000 nM. For the same compound, the GI50 (SiHa) was over 4000 nM.

Work on `O=C1c2[nH]c3ccccc3c2C(=O)c2cnc3ccc(Cl)cc3c21` yielded a GI50 (NCI-H460) of 700 nM, a GI50 (U-251) of 500 nM and a GI50 (HCT-116 [2]) of 1500 nM. The GI50 (MCF7) was 350 nM, the GI50 (MDA-MB-231) was 170 nM and the GI50 (Jurkat) was 1400 nM. It also gave a GI50 (HeLa) of 500 nM, a GI50 (HCT-116 [1]) of 420 nM and a GI50 (SiHa) of 1670 nM.

`Cc1c2cnc3ccccc3c2cc2[nH]c3ccccc3c12` was tested, and the GI50 (NCI-H460) was 10500 nM, the GI50 (HEK293) was over 4000 nM and the GI50 (U-251) was over 4000 nM. For the same compound, the inhibition [3] was “Active”, the inhibition [4] was 100% and the GI50 (A549) was over 4000 nM. For the same compound, the IC50 [5] was 19100 nM, the IC90 [5] was 28800 nM and the inhibition [5] was “Dose-dependent effect”. For the same compound, the GI50 (MCF7) was over 4000 nM, the GI50 (MDA-MB-231) was over 4000 nM and the GI50 (Jurkat) was over 4000 nM. For the same compound, the GI50 (HeLa) was 360 nM, the GI50 (HCT-116 [1]) was 15000 nM and the GI50 (SiHa) was over 4000 nM. The inhibition [6] was 98% and the Activity [7] was “Dose-dependent effect”.

`Nc1nc2ccccc2c2cc3c(cc12)[nH]c1ccccc13` gave a GI50 (NCI-H460) of 1050 nM, a GI50 (U-251) of 650 nM and a GI50 (MCF7) of 1000 nM. For the same compound, the GI50 (MDA-MB-231) was 1100 nM, the GI50 (HeLa) was 1400 nM and the GI50 (HCT-116 [1]) was 1050 nM. It also gave a GI50 (SiHa) of 1300 nM.
